Source: patent publication US11407741B2, “Compounds and their use as selective inhibitors of caspase-2” (priority 2017, dated 2022)
Where a SMILES comes first, the peptide text is derived from it. The star is where a group is joined. X2 = O=C(O)C[C@H](N*)C(=O)COc1c(F)cccc1F; Quinaldoyl = O=C(c1ccc2ccccc2n1)*

Experiments:
HeLa cells = test: Protection against vincristine-induced cell death, propidium iodide flow cytometry; format: cell-based, human; design: Index of cell death: key to the marks not given beside the values; settings: 20 nM Vincristine for 48 hours, propidium iodide positive cells
Method: Human HeLa cells are used in this model. HeLa cells (cervical cancer cell line) were obtained from American Type Cell Collection (ATCC), and were cultured in Dulbecco's Modified Eagle Medium (DMEM, High Glucose, GlutaMAX™, Pyruvate) (Gibco, Life technologies), supplemented with 10% FCS and antibiotics (Gibco, Life technologies).
Human HeLa cells are treated with a solution of Vincristine (Sigma Aldrich) (diluted in water at 5 mM). Vincristine works partly by binding to the Tubulin protein, stopping the cell from separating its chromosomes during the metaphase; the cell then undergoes apoptosis through a caspase-dependent process.
Propidium iodide (PI) (Sigma Aldrich) is used to evaluate plasma membrane permeabilisation, a sign of cell death.
24 hours before pharmacological treatment, HeLa cells were plated into 24-well plates. […] Cells were exposed or not (control), to 20 nM Vincristine for 48 hours.
The content of each well is collected is added to PBS and then centrifuged (900 rpm; 5 min).
The pellet obtained is put into 300 μL of a medium comprising propidium iodide and incubated (37° C., 5% CO2) in the dark for 5 minutes and then subjected to flow cytometry analysis.
Fluorescence-Activated Cell Sorting was performed using a FACSCalibur cytometer (Becton Dickinson, San Jose, Calif.). For each sample, data from 5,000 Cells were registered and analyzed with the CellQuest Pro software (Becton Dickinson). Analysis included FSC (Forward Scatter/relating to the cells'size) and SSC (Side Scatter/relating to the cells' granularity) parameters together with FL-1 and FL-3 channel.
The percentage of propidium iodide positive cells gives an estimation of cell death.

Caspase-3 = molecular target: T1, Caspase-3 (Homo sapiens, UniProt P42574); test: Caspase-3 inhibition assay for irreversible inhibitors (kinact/KI, continuous method); format: biochemical; settings: human recombinant Caspase-3 0.5 nM, 37° C.
T1 construct: the Caspase-2 and Caspase-3 are human recombinant active enzymes; purchased R&D Systems 707-C3-010/CF
T1 sequence (P42574 29-175 limits assumed): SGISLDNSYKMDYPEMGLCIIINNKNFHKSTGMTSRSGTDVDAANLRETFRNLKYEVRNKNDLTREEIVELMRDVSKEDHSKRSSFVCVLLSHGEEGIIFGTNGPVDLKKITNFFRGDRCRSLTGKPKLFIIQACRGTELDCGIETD
T1 sequence (P42574 176-277 limits assumed): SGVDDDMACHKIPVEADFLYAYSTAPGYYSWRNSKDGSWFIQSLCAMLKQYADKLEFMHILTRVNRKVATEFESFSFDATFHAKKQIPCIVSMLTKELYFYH
Method: (§1) The efficiency of the comparative compound Δ2Me-TRP601, that is an already known group II Caspase inhibitor (inhibitor of Caspase-2, Caspase-3 and Caspase-7), has been assessed by a similar protocol described in Chauvier et al., 2011 Cell Death Dis 2011, 2:e203.
(§2) In this example, the Caspase-2 and Caspase-3 are human recombinant active enzymes that are respectively provided by Enzo Life® (ALX-201-057-U100) and R&D Systems® (707-C3-010/CF).
Caspase-2 is used at a final concentration of 0.1 nM in a “Caspase-2 buffer” containing 20 mM HEPES (pH 7.4), 5 mM DTT, 2 mM EDTA, 0.1% CHAPS and 800 mM succinate. […]
The peptide substrates used for the enzymatic activity measurements are Ac-DEVD-AMC and Ac-VDVAD-AMC commercialized by EnzoLife® (respectively referenced ALX-260-031-M005 and ALX-260-060-M005). […] The releasing of AMC enables to follow the enzymatic activity in fluorescence unit RFU over time in a 96-wells microplate.
The fluorescence values are measured at 37° C. with a spectrofluorometer with a microplate reader BMG FLUOstar OPTIMA. […]
The inhibitory properties of the tested compounds are evaluated by the determination of the kinact/KI ratio regarding either Caspase-2 or Caspase-3 wherein: • kinact is the maximal inactivation rate constant, and • KI is the dissociation constant according to: […]
The activities of the enzyme are measured between 45 and 60 minutes. […]

Caspase-2 = molecular target: T2, Caspase-2 (Homo sapiens, UniProt P42575); test: Caspase-2 inhibition assay for irreversible inhibitors (kinact/KI, continuous method); format: biochemical
T2 construct: the Caspase-2 and Caspase-3 are human recombinant active enzymes; purchased Enzo Life ALX-201-057-U100
T2 sequence (P42575 170-325 limits assumed): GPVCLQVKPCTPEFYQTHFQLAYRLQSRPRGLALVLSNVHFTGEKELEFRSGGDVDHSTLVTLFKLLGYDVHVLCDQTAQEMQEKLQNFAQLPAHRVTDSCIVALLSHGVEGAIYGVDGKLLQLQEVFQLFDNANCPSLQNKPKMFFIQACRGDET
T2 sequence (P42575 348-452 limits assumed): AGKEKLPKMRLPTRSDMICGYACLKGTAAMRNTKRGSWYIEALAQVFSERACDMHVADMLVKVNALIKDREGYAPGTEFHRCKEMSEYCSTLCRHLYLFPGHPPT
Method: as §1, §2
Caspase-2 is used at a final concentration of 0.1 nM in a “Caspase-2 buffer” containing 20 mM HEPES (pH 7.4), 5 mM DTT, 2 mM EDTA, 0.1% CHAPS and 800 mM succinate. Caspase-3 is used at a final concentration of 0.5 nM in a “Caspase-3 buffer” containing 20 mM HEPES (pH 7.4), 0.1% CHAPS, 5 mM DTT, and 2 mM EDTA.
The peptide substrates used for the enzymatic activity measurements are Ac-DEVD-AMC and Ac-VDVAD-AMC commercialized by EnzoLife® (respectively referenced ALX-260-031-M005 and ALX-260-060-M005). They are fluorogenic due to the presence of their AMC (7-amino-4-methylcoumarin) end group. The releasing of AMC enables to follow the enzymatic activity in fluorescence unit RFU over time in a 96-wells microplate.
The fluorescence values are measured at 37° C. with a spectrofluorometer with a microplate reader BMG FLUOstar OPTIMA. This apparatus is driven by the software Biolise® and is equipped with thermoelectric cooling device by Peltier effect. The mathematical analyses of the experimental data are done with the software Kaleidagraph®.
The inhibitory properties of the tested compounds are evaluated by the determination of the kinact/KI ratio regarding either Caspase-2 or Caspase-3 wherein: • kinact is the maximal inactivation rate constant, and • KI is the dissociation constant according to:
Said ratio is measured according to the continuous method (Allison R D. Curr Protoc Protein Sci. 2001 May; Chapter 3:Unit 3.5.; Chauvier et al., 2011 Cell Death Dis 2:e203; Tan et al., J Med Chem 2015, […]).
Briefly, Caspases activities were determined by monitoring the hydrolysis of fluorogenic substrates (λexc=355 nm, λem=460 nm) as a function of time, in the presence of untreated Caspases (control) or Caspases that had been incubated with a test compound, for 30 min minimum at 37° C. using a BMG Fluostar microplate reader (black 96-well microplates) and the initial velocity (V0) was determined from the linear portion of the progress curve.
Substrates and compounds were previously dissolved in DMSO at 10 mM, with the final solvent concentration kept at lower 4% (v/v). V0, relative velocities, KM and IC50 were determined from experimental data using Mars data Analysis 2.0 and Kaleidagraph softwares.
Inhibitor binding affinity (dissociation constant, KI) and first-order rate constant (k3) parameters were determined for Caspase-2 and Caspase-3 using the progress curve method. The ratio k3/KI was obtained by fitting the experimental data to the equations (F.U., fluorescence unit): […]
A continuous method of determination of the kinact/KI ratio was used for evaluating the inhibitory activity of the tested compounds against Caspase-2 and Caspase-3.
The reaction mixture is prepared by letting the enzyme and the buffer incubate at 37° C.
The tested inhibitory compounds are prepared at different concentrations (¼ IC50; ½ IC50; IC50; 2 IC50; 4 IC50) and put in the microplate.
Then the reaction mixture comprising the enzyme, the buffer and the substrate is rapidly added in the wells.
The activities of the enzyme are measured between 45 and 60 minutes.
The RFU (Relative Fluorescence Units)=f(times) curves are traced for each concentration of tested molecule according to the following equation: ((((−V0)*(exp(−kobs*m0)))+V0)/kobs*)+RFU0
in which: • V0 corresponds to the initial rate (RFU·s^−1) in the concentration of 0 of the tested inhibitory compound; • kobs is the inactivation rate constant; • RFU0 is the fluorescence value at t=0 min; and • m0 is the variable i.e. the inhibitor concentration.

Row | SMILES | Index of cell death (HeLa cells) | k3/KI Casp3 (Caspase-3) | Selectivity for Caspase 2 (Caspase-2; comparison of kinact/KI ratios regarding caspase 2 and 3) | k3/KI Casp2 (Caspase-2; human recombinant Caspase-2 0.1 nM, 37° C.) | Selectivity ratio (C2/C3) (Caspase-2; ratio of k3/KI Casp2 to Casp3)
1 | CC[C@]1(O)C[C@H]2CN(CCc3c([nH]c4ccccc34)[C@@](C(=O)OC)(c3cc4c(cc3OC)N(C=O)[C@H]3[C@@](O)(C(=O)OC)[C@H](OC(C)=O)[C@]5(CC)C=CCN6CC[C@]43[C@@H]65)C2)C1 [Vincristine alone, Vincristine, reference compound] | ++++ | – | – | – | –
2 | CC(C)[C@H](NC(=O)c1ccc2ccccc2n1)C(=O)N[C@@H](CC(=O)O)C(=O)N[C@H](C(=O)N[C@@H](C)C(=O)N[C@@H](CC(=O)O)C(=O)COc1c(F)cccc1F)C(C)C [Δ2Me-TRP-601, reference compound] (Quinaldoyl-VDVA-X2) | – | 1 613 405 M^−1 · s^−1 | no | 1 586 020 M^−1 · s^−1 | 0.98
